The record followed here is ChEMBL document CHEMBL1134497, “Soluble 2-substituted aminopyrido[2,3-d]pyrimidin-7-yl ureas. Structure-activity relationships against selected tyrosine kinases and exploration of in vitro and in vivo anticancer activity” (J Med Chem, 2001).

Some results are limits rather than exact numbers.

Test [1] relates to C6. Kind of test: Inhibition of C-6 rat glioma cell proliferation. It is filed as functional, cell-based.
For test [2], the target named is Cyclin-dependent kinase 4 (Homo sapiens, UniProt P11802). Kind of test: Inhibition of cyclin dependent kinase 4 (CDK4).
Cyclin-dependent kinase 4, sequence (P11802 whole entry): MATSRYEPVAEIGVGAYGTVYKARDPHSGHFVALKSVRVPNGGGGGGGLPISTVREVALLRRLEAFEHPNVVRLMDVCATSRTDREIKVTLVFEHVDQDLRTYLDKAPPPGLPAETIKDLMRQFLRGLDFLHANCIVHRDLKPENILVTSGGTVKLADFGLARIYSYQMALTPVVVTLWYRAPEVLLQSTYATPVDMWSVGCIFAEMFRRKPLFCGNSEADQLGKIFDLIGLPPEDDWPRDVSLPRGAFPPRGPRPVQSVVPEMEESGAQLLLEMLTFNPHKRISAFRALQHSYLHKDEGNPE
The subject of test [3] is HCT-8. The experiment in a line: Inhibition of human colon carcinoma HCT-8 cell proliferation. The format is functional, cell-based.
The nature of test [4]: Inhibition of MEK1/ERK (MAP kinase kinase) in cascade assay.
Test [5] deals with HT-29. The experiment in a line: Inhibition of human colon carcinoma HT-29 cell proliferation. It is filed as functional, cell-based.
The subject of test [6] is NIH3T3. Kind of test: Inhibition of NIH3T3/PDGF Mouse transfected fibroblasts cell line. It is filed as functional, cell-based.
Test [7] addresses Protein kinase C (PKC). Kind of test: Inhibition of protein kinase C. The format is protein assay.
The target of test [8] is T1, Platelet-derived growth factor receptor (PDGFr) (Rattus norvegicus, UniProt P20786+Q05030). Kind of test: (§1) Inhibition of PDGF receptor autophosphorylation in rat aortic vascular smooth muscle cells.
Test [9] has as its system SW-620. The experiment in a line: Inhibition of human colon carcinoma SW-620 cell proliferation. It is filed as functional, cell-based.
The target in test [10] is T1, Platelet-derived growth factor receptor (PDGFr). The test is described as §1. The format is functional.
The target in test [11] is Proto-oncogene tyrosine-protein kinase Src (Gallus gallus, UniProt P00523). Kind of test: Ability to prevent phosphorylation of avian c-Src TK.
The nature of test [12]: Inhibition of MEK1/ERK (MAP Kinase kinase) in cascade assay.
Test [13] deals with Insulin receptor (Homo sapiens, UniProt P06213). Kind of test: Inhibition of insulin receptor kinase.
Insulin receptor, sequence (P06213 28-758 limits assumed): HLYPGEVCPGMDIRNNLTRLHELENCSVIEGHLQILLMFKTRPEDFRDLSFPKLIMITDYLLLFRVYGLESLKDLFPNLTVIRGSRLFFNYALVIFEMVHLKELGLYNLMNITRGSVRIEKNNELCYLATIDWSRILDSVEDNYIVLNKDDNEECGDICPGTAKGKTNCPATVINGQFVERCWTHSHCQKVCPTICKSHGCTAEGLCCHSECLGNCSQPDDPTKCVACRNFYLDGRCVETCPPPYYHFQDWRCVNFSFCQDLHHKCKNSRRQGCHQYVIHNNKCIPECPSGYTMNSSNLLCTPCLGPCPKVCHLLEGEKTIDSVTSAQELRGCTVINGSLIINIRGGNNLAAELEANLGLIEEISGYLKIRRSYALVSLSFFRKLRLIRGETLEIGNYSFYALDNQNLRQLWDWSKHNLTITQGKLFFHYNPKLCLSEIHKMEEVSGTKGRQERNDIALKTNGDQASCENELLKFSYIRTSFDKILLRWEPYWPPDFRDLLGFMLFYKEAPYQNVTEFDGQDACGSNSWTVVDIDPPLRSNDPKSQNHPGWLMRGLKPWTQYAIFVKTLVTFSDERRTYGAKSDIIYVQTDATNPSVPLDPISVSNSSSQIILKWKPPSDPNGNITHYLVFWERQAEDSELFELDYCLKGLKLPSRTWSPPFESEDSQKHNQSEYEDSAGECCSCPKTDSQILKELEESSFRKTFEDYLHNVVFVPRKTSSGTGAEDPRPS
Insulin receptor, sequence (P06213 763-1382 limits assumed): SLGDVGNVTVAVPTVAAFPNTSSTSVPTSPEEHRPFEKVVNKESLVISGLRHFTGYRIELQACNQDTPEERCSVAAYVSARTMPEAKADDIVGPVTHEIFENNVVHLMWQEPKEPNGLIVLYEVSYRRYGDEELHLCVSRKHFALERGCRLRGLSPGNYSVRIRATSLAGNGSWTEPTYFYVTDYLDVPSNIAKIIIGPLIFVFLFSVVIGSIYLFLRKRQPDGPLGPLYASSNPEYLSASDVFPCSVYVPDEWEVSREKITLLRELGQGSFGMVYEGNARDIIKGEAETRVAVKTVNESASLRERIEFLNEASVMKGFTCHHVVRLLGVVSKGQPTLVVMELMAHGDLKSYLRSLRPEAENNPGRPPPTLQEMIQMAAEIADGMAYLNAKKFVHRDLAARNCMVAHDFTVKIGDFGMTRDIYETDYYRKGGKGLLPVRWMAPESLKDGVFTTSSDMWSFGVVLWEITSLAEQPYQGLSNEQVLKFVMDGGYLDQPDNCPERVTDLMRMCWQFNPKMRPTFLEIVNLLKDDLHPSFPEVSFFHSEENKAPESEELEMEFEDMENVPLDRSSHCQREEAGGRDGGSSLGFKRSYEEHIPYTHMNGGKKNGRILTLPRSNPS
The target in test [14] is Platelet-derived growth factor receptor beta (Mus musculus, UniProt P05622). Kind of test: Ability to prevent phosphorylation of isolated mouse PDGF receptor beta.
Platelet-derived growth factor receptor beta, sequence (P05622 whole entry): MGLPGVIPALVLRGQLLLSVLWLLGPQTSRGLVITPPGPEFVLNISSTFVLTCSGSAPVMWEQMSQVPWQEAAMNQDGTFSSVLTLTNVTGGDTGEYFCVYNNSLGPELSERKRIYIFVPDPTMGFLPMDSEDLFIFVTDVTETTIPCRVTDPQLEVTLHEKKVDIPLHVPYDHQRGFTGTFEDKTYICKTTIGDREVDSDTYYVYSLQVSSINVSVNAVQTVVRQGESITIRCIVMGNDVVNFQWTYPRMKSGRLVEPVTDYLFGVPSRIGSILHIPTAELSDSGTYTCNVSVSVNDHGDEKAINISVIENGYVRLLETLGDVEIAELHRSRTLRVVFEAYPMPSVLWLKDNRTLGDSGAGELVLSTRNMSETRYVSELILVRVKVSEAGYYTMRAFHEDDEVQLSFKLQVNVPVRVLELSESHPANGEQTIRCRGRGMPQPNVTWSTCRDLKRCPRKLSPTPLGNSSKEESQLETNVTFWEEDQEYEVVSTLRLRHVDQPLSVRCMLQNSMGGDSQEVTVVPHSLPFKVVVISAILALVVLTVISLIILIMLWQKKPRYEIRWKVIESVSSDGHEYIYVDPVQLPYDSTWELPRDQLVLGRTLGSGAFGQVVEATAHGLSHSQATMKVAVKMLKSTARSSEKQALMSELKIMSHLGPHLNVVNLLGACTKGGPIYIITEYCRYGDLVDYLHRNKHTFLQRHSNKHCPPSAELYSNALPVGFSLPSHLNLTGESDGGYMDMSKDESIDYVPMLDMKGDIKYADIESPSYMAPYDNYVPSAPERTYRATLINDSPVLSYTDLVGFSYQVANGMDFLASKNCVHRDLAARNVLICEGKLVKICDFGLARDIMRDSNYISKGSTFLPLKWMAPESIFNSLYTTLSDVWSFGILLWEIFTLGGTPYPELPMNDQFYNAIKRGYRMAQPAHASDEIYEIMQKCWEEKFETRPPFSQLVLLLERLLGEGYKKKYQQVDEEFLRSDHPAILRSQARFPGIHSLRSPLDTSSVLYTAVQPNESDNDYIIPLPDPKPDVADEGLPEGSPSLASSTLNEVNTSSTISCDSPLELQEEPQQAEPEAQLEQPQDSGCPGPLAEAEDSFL
The target of test [15] is Fibroblast growth factor receptor 1 (Homo sapiens, UniProt P11362).
Fibroblast growth factor receptor 1, sequence (P11362 whole entry): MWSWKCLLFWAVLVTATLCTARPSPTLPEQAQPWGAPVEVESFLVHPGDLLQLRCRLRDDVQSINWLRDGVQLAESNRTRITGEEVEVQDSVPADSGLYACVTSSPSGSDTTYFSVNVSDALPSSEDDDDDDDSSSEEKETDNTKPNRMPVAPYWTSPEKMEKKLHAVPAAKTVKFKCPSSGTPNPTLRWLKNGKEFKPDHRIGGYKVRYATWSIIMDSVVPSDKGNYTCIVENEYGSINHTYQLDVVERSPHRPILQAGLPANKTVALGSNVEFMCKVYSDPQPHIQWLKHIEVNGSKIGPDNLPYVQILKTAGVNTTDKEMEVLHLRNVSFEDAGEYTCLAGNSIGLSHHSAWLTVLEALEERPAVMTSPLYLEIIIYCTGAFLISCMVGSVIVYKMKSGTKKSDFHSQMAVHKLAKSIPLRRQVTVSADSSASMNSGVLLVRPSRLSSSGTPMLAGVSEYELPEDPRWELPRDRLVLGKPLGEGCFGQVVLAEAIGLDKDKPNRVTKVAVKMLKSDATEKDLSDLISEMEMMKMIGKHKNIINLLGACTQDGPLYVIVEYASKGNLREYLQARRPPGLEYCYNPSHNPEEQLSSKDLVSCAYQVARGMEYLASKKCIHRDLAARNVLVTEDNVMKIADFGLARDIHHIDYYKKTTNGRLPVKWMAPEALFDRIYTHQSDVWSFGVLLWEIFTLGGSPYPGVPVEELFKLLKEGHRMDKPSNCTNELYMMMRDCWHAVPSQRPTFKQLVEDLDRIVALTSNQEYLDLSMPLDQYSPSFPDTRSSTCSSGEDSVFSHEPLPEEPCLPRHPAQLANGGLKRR
Description: Ability to prevent phosphorylation of human fibroblast growth factor receptor 1

`CCNC(=O)Nc1nc2nc(NCCCCN(CC)CC)ncc2cc1-c1c(Cl)cccc1Cl`: the IC50 (as a rule, the midpoint of a concentration-inhibition curve) in [1] was 8.8 µM; in [2], greater than 40 µM; in test [3] it was 4.02 µM; in [4], greater than 5 µM; in test [5], 1.17 µM; in test [6], 1.01 µM. The results for the IC50 in test [7], in test [8] and in [9] were greater than 50 µM, 0.24 µM and 2.76 µM, respectively.
For `CN1CCN(CCCNc2ncc3cc(-c4c(Cl)cccc4Cl)c(NC(=O)Nc4ccccc4)nc3n2)CC1`, the IC50 in test [1] was 6.7 µM; in [3], 4 µM; in [5], 1.5 µM; in [10] it was 0.37 µM; in test [9], 4.1 µM; in test [11], 0.015 µM.
On to `CCN(CC)CCCCNc1ncc2cc(-c3c(Cl)cccc3Cl)c(NC(=O)NC(C)(C)C)nc2n1`, for which the half-maximal inhibitory concentration (IC50) was 5.8 µM in test [1]; greater than 40 µM in [2]; 16.3 µM in test [3]; 2.8 µM in test [12]; 0.9 µM in test [5]; 23 µM in test [7]. In addition, the figures for the IC50 in test [9] and in [11] were greater than 25 µM and 0.0074 µM, respectively.
As for `CCN(CC)CCCCNc1ncc2cc(-c3c(Cl)cccc3Cl)c(NC(=O)Nc3ccccc3)nc2n1`, the IC50 in test [1] was 8.1 µM; in test [2] it was greater than 40 µM; in test [3], 3.2 µM; in [13], greater than 50 µM; in test [12] it was 5 µM; in [5] it was 0.8 µM. The IC50 is greater than 50 µM in test [7], 1.2 µM in test [8], 2.6 µM in [9] and 0.0075 µM in [11].
Turning to `CC(C)NC(=O)Nc1nc2nc(NCCCN3CCN(C)CC3)ncc2cc1-c1c(Cl)cccc1Cl`, the IC50 in test [14] worked out at 0.55 µM; in test [11], 0.019 µM; in [15] it was 0.034 µM.
With `CN1CCN(CCCNc2ncc3cc(-c4c(Cl)cccc4Cl)c(NC(=O)NC(C)(C)C)nc3n2)CC1`, the IC50 is 4 µM in test [1]; greater than 40 µM in test [2]; greater than 15.2 µM in test [3]; 7 µM in test [12]; 11.1 µM in [5]; 1.08 µM in test [6]. The IC50 was 22 µM in test [7] and greater than 25 µM in test [9].
Regarding `CCNC(=O)Nc1nc2nc(NCCCN3CCN(C)CC3)ncc2cc1-c1c(Cl)cccc1Cl`, the IC50 was 6.7 µM in test [1]; 9.3 µM in test [3]; 0.9 µM in [5]; 2.5 µM in test [9]; 0.024 µM in test [11].
